Patent US20090047287A1, “MODULATION OF BONE FORMATION” (Wyeth, priority 2006, published 2009)

B1: purified recombinant GST-tagged cytosolic domain of human Ror2 (Invitrogen) (protein)
chain: VCMCRNKQKASASTPQRRQLMASPSQDMEMPLINQHKQAKLKEISLSAVRFMEELGEDRFGKVYKGHLFGPAPGEQTQAVAIKTLKDKAEGPLREEFRHEAMLRARLQHPNVVCLLGVVTKDQPLSMIFSYCSHGDLHEFLVMRSPHSDVGSTDDDRTVKSALEPPDFVHLVAQIAAGMEYLSSHHVVHKDLATRNVLVYDKLNVKISDLGLFREVYAADYYKLLGNSLLPIRWMAPEAIMYGKFSIDSDIWSYGVVLWEVFSYGLQPYCGYSNQDVVEMIRNRQVLPCPDDCPAWVYALMIECWNEFPSRRPRFKDIHSRLRAWGNLSNYNSSAQTSGASNTTQTSSLSTSPVSNVSNARYVGPKQKAPPFPQPQFIPMKGQIRPMVPPPQLYVPVNGYQPVPAYGAYLPNFYPVQIPMQMAPQQVPPQMVPKPSSHHSGSGSTSTGYVTTAPSNTSMADRAALLSEGADDTQNAPEDGAQSTVQEAEEEEEGSVPETELLGDCDTLQVDEAQVQLEA

What was measured:
[1] = system: human mesenchymal stem cells (hMSC); test: Mineralized matrix formation in hMSC, alizarin red-S staining; assay type: cell-based
Method: Human MSC were seeded at 6,000/cm^2 in 12-, or 6-well plates and allowed to adhere and proliferate overnight. Cells were infected for 24 h in 0.4 ml/cm^2 MSCGM using Ror2, Ror2KD, or β-gal adenoviruses at multiplicity of infection (MOI)=750 in presence of hCAR (MOI=750) to improve infection efficiency. After 24 h, cells were washed once in PBS and MSCGM, MSCGM supplemented with 0.05 mM ascorbic acid and 10 mM β-glycerophosphate, or MSCGM containing adipogenic supplements (PT-3004, Cambrex) were added. Where indicated, 100 nM dexamethasone (dex) and/or the indicated antibodies were added to the medium. For shRNA infection, cells were seeded at 6,000/cm^2 in 12- or 6-well plates and allowed to adhere and proliferate for 3 days. Cells were infected for 72 h in 0.4 ml/cm^2 MSCGM using adenoviruses coding for Ror2-specific shRNA or EGFP-specific shRNA at 4,000 viral particles per cell (based on the original seeding density) in presence of hCAR (MOI=750). After 72 h, cells were washed once in PBS, and MSCGM or MSCGM supplemented with 0.05 mM ascorbic acid, 10 mM β-glycerophosphate were added. Where indicated 100 nM dex and/or specific antibodies were added. Every 5 days, either the entire medium or ½ of it was replaced with fresh medium.
Formation of mineralized nodules by hMSC was determined on 12-well plates by alizarin red-S histochemical staining. The cells and matrix were fixed at RT for 1 h with 70% (v/v) ethanol, washed with de-ionized water and stained for 10 min at RT with 40 mM alizarin red-S, pH 4.2. The stained matrix was washed with de-ionized water and photographed. To quantify the level of alizarin red-S staining, the dye was eluted with 1 ml/well of 10% (w/v) Cetylpyridinium Chloride. Alizarin red-S in the eluted samples was quantified (versus a standard curve of 0-800 μM dye) at 562 nm with a microplate reader.

Ror2 receptor = molecular target: T1, Ror2 receptor (Homo sapiens, UniProt Q01974); test: Ror2 dimerization in U2OS cells, Flag/His-tagged Ror2 co-immunoprecipitation; assay type: cell-based; details: antibody 1 h at 37 C, vs non-specific goat IgG
T1 construct: expressed in transfected cells; host or cells: U2OS
Method: For Ror2 plasmid transfections, U2OS cells were seeded at ˜80% confluent density and transfected 24 h later with 11 μg of total plasmid DNA per 19.6 cm^2 using Fugene6 transfection reagent (Roche Applied Science, Indianapolis, Ind.) per manufacturer's instructions. For siRNA transfections, U2OS cells were plated on 6-well plates at 52,000 cells/cm^2 and transfected 24 h later with 25 nM of Ror2 siRNA or non-specific siRNA (both from Dharmacon Inc., Lafayette, Colo.) using 10 μl of Lipofectamine 2000 reagent per manufacturer's instructions.
(§1) Cells were solubilized in lysis buffer (150 mM NaCl, 50 mM Tris-HCl, pH 7.5, 1 mM EDTA, 1% Triton X100) supplemented with protease and phosphatase inhibitor cocktails (Sigma) and the extracts were clarified by centrifugation at 10,000×g for 10 min at 4° C. For Flag immunoprecipitation, 1 mg of total cell lysates was incubated with 30 μl of M2 Flag affinity agarose (Sigma) for 1 h with rotation at 4° C. The beads were collected by centrifugation and washed three times in lysis buffer containing 350 mM NaCl and three times in lysis buffer. For 14-3-3β precipitation, 15 μl of 14-3-3β antibody was incubated with 30 μl of protein A sepharose in 1 ml of lysis buffer overnight at 4° C. and the beads were collected by centrifugation and washed in lysis buffer prior to addition of 1 mg of total cell lysates. […]

Ror2 tyrosine kinase = molecular target: T2, Ror2 tyrosine kinase (Homo sapiens, UniProt Q01974); test: Ror2 activation in U2OS cells, phosphotyrosine precipitation, Ror2 blot; assay type: cell-based; details: untransfected U2OS cells, antibody 1 h at 37° C., vs IgG control
T2 construct: western immunoblotting for the endogenous Ror2 protein; endogenous in cells; host or cells: U2OS
Method: as §1, with “lysates. The binding reaction was carried out for 2 h at 4° C. with mild rotation and the beads were collected and washed as for Flag precipitation. For phosphotyrosine precipitation, 1 mg (for detecting over-expressed proteins) or 1.5 mg (for detecting endogenous proteins) of cellular extract was added to 100 μl of G410 beads and allowed to attach for 3 h at 4° C. At this time, P-Tyr-100 immobilized antibody (100 μl) was added to the mix for an additional 3 h. All beads were collected by centrifugation and washed as for Flag precipitation.” for “lysates.”

14-3-3β protein = test: Ror2 activation in U2OS cells, phosphotyrosine precipitation, 14-3-3β blot; assay type: cell-based, human; details: untransfected U2OS cells, antibody 1 h at 37° C., vs IgG control
Method: as §1, with “lysates. The binding reaction was carried out for 2 h at 4° C. with mild rotation and the beads were collected and washed as for Flag precipitation. For phosphotyrosine precipitation, 1 mg (for detecting over-expressed proteins) or 1.5 mg (for detecting endogenous proteins) of cellular extract was added to 100 μl of G410 beads and allowed to attach for 3 h at 4° C. At this time, P-Tyr-100 immobilized antibody (100 μl) was added to the mix for an additional 3 h. All beads were collected by centrifugation and washed as for Flag precipitation.” for “lysates.”

mouse calvarial bones = test: Ex vivo mouse calvarial culture with shRNA adenovirus and antibody, histomorphometry (Bioquant); assay type: cell-based; details: mouse calvariae, 7 days; shRNA 5×10^7 viral particles/ml, antibody 12 μg/ml; vs scrambled shRNA and IgG
Method: We next tested if in vitro effects of Ror2 activation and 14-3-3β inhibition translate into increased bone formation in ex vivo organ cultures. Calvarial bones of 4 days old mouse littermates were infected with adenoviruses containing scrambled shRNA or 14-3-3β-specific shRNA at 5×10^7 viral particles/ml; and 48 h later were treated with 12 μg/ml of anti-Ror2 antibody or non-specific IgG in presence of 15 μg/ml calcein. After 7 days of culture with adenoviruses and antibodies, the bones were stained with hematoxylin-eosin and consistent 300 μm stretches (450 μm away from frontal sutures) were subjected to histomorphometric analysis using Bioquant-NOVA MR 5.50.8 (Nashville, Tenn.). Under control conditions of scrambled shRNA infection and IgG treatment, 600 μm length of calvaria contained 9394±1333 μm^2 of bone area and 39.5±7.4 osteoblasts.

Ror2-TrkB chimera = molecular target: T3, Ror2-TrkB chimera (Homo sapiens, UniProt Q01974, T245A); test: Ror2-TrkB chimera CRE-luciferase reporter assay in HEK293 cells; assay type: cell-based; details: HEK-CRE cells expressing Ror2-TrkB chimera, 24 h, compared to non-specific IgG
T3 construct: extracellular domain of Ror2 (aa 1-407) fused to the transmembrane and intracellular domains of TrkB (aa 432-822); expressed in transfected cells
Description: FIG. 12 illustrates generation of a high throughput, high sensitivity assay for Ror2 activity. A. Schematic representation of the assay that utilizes the signaling pathway of the TrkB receptor. The TrkB receptor is activated by ligand-induced homo-dimerization that causes phosphorylation of Erk and stimulation of the cAMP response element (CRE) in the promoter of target genes. We generated a chimeric receptor consisting of the extracellular domain of Ror2 (aa 1-407) fused to the transmembrane and intracellular domains of TrkB (aa 432-822). When using this chimera, agents that cause Ror2 dimerization activate TrkB signaling pathway and this activation can be assessed by a CRE promoter-luciferase reporter assay. B. HEK293 cells were stably transfected with the Ror2-TrkB chimera and CRE-luciferase plasmids, treated with the indicated amounts of the anti-Ror2 antibody or non-specific IgG for 24 h, and luciferase activity was assessed. Luciferase activity observed upon treatment with the non-specific IgG was set at 1. […]
The TrkB receptor is activated by ligand-induced homo-dimerization that causes phosphorylation of Erk and stimulation of the cAMP response element (CRE) in the promoter of target genes. […] Colonies were grown at 37 C with 350 μg/ml hygromycin and levels of Ror2-TrkB expression were assessed by western immunoblotting and immunocytochemistry. […]

[2] = molecular target: T4, purified recombinant human GST-14-3-3β (Biomol), P31946
T4 chain: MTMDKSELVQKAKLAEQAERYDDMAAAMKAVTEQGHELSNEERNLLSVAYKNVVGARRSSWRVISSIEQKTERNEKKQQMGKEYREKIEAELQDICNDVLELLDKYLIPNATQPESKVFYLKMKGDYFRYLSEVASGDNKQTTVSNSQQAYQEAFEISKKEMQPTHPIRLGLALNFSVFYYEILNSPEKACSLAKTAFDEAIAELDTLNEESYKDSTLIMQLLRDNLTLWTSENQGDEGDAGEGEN

T1 sequence (Q01974 34-943): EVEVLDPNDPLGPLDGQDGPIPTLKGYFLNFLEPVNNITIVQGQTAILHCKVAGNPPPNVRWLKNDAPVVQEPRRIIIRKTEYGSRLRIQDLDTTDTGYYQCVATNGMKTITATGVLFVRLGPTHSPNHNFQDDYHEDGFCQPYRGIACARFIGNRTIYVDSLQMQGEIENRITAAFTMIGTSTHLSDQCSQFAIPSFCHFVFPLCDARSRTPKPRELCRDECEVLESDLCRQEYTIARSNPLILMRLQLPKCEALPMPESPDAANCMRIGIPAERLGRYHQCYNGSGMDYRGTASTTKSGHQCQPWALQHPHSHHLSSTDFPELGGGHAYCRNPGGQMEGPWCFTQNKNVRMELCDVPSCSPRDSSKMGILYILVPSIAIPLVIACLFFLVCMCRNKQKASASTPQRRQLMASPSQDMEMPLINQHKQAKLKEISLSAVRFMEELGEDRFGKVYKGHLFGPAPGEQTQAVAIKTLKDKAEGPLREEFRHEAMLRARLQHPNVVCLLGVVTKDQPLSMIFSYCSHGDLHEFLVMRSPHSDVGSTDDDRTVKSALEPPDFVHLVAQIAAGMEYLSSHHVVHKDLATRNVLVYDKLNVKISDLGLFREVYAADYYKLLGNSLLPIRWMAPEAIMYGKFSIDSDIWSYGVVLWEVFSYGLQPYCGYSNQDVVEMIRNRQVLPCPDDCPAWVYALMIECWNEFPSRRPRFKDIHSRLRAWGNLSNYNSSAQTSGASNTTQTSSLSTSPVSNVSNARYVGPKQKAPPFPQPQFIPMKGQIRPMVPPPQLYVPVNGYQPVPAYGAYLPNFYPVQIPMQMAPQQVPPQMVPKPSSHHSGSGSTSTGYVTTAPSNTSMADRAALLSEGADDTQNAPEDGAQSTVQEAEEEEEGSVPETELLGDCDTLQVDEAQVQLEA
T1 sequence (Q01974 34-943): as above
T2 sequence (Q01974 34-943): as above
T3 sequence (Q01974 with tags, fused parts or gaps T245A): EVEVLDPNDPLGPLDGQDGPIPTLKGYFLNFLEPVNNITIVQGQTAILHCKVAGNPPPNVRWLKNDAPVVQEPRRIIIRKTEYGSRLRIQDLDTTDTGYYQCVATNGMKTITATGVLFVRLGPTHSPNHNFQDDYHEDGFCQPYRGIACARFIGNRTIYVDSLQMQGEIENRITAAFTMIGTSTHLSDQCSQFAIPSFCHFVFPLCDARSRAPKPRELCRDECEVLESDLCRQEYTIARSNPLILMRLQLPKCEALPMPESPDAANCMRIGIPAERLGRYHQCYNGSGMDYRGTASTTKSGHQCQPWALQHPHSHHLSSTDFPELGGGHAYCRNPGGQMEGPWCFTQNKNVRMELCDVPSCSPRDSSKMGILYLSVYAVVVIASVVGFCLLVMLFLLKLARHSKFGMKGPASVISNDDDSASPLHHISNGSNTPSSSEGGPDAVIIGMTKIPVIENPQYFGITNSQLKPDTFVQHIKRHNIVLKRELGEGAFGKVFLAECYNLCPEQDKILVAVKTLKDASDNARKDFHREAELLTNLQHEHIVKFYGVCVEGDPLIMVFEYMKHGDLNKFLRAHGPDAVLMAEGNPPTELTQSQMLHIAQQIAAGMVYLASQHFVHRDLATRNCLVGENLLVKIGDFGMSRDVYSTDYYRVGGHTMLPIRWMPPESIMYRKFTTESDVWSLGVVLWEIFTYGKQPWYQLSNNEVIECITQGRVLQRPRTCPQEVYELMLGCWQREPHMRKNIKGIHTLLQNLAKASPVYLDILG

Molecule | antibody effect on matrix mineralization when Ror2 expression is inhibited ([1]; hMSC infected with Ror2-specific shRNA, 100 nM dex, 9 days) | calcified matrix formation in absence of dex ([1]; hMSC infected with Ror2 adenovirus, no dex, 19 days, vs non-specific goat IgG) | extent of calcified matrix formation (alizarin red-S) ([1]; hMSC, osteogenic cocktail with 100 nM dex, increasing amounts of IgG, 9 days) | Ror2 homodimer formation (His-tagged with Flag-tagged Ror2) (Ror2 receptor) | autophosphorylation of the Ror2 kinase (Ror2 tyrosine kinase) | phosphorylation of 14-3-3β protein (14-3-3β protein) | increase in the osteoblast number (mouse calvarial bones) | increase in the total bone area (mouse calvarial bones) | luciferase activity (CRE promoter) (Ror2-TrkB chimera) | in vitro kinase assay, immunoblot with phosphotyrosine antibody [2]
anti-Ror2 antibody: Ror2-specific goat polyclonal IgG raised against the extracellular domain of human Ror2, R&D Systems, AF2064 | disappeared | induced calcified matrix formation | dose-dependently increased | strongly enhanced | significant autophosphorylation | phosphorylation | 85% | 50% | robust dose-dependent increase | –
B1 | – | – | – | – | – | – | – | – | – | Ror2c phosphorylated both 14-3-3 β and itself
